The subject of this test is Sphaerotheca fuliginea. The test is described as follows: Protective activity against mildew of cucumbers caused by Sphaerotheca fuliginea. The format is in vivo. Particulars: inoculated 20 hours after spraying, evaluated after 7 days. On the procedure:
Evaluation was carried out by determining the infected leaf areas in percent. These percentages were converted into efficacies. The efficacy (W) was calculated as follows using Abbot's formula:
[formula] • α corresponds to the fungal infection of the treated plants in % and • β corresponds to the fungal infection of the untreated (control) plants in %
An efficacy of 0 means that the infection level of the treated plants corresponds to that of the untreated control plants; an efficacy of 100 means that the treated plants were not infected.
20 hours after the spray coating had dried on, the plants were inoculated with an aqueous spore suspension of mildew of cucumbers (Sphaerotheca fuliginea). The plants were then cultivated in a greenhouse at 20-24° C. and 60-80% relative atmospheric humidity for 7 days. The extent of mildew development was then determined visually in % infection of the cotyledon area.
The visually determined values for the percentage of infected leaf areas were converted into efficacies in % of the untreated control. An efficacy of 0 means the same degree of infection as the untreated control, an efficacy of 100 means 0% infection.

Where [1] appears, read: 0.015 ppm active compound in the spray liquor.
The mark [2] stands for this setting: 0.06 ppm active compound in the spray liquor.
Where [3] appears, read: 0.25 ppm active compound in the spray liquor.
Where [4] appears, read: 1 ppm active compound in the spray liquor.

`CCOP(=S)(OCC)Oc1nc(Cl)c(Cl)cc1Cl` [Compound III, chlorpyrifos]: the “Efficacy in % of the untreated control” value is, setting by setting: under setting [1], 0%; under setting [2], 0%; under setting [3], 0%.

Take `N#Cc1nn(-c2c(Cl)cc(C(F)(F)F)cc2Cl)c(N)c1[S+]([O-])C(F)(F)F` (stereo not drawn) [Compound II, fipronil]: the “Efficacy in % of the untreated control” value by setting is: under setting [1], 0%; under setting [2], 0%; under setting [3], 0%; under setting [4], 0%.

For `OC(Cc1ccccc1Cl)(Cn1nc[nH]c1=S)C1(Cl)CC1` (stereo not drawn) [Compound I, 2-[2-(1-chlorocyclopropyl)-3-(2-chlorophenyl)-2-hydroxypropyl]-2,4-dihydro-[1,2,4]-triazole-3-thione], the “Efficacy in % of the untreated control” value is on record as 0% under setting [1], 0% under setting [2] and 5% under setting [3].

For `CN1COCN(Cc2cnc(Cl)s2)/C1=N\[N+](=O)[O-]` [Compound IV, thiamethoxam], the “Efficacy in % of the untreated control” value came out at 0% under setting [1]; 0% under setting [2]; 0% under setting [3]; 0% under setting [4]; 0% (4 ppm active compound in the spray liquor).

These data come from patent US7732374B2, “Fungicidal mixtures based on prothioconazole and an insecticide” (priority 2002, dated 2010).
